Data: patent publication US10570121B2, “Substituted dihydroisoquinolinone compounds” (priority 2014, dated 2020)
Read-outs that look alike come from different tables or passages of the source.

Tests used:
Type in all cases: biochemical
[1] = molecular target: EZH2 Mutant Y641N (Homo sapiens (Human), UniProt Q15910, Y641N); assay: EZH2 Mutant Y641N nucleosome assay; conditions: PRC2 4-protein complex 6 nM, 1.5 μM SAM, HeLa oligonucleosomes
[2] = molecular target: T1, WT EZH2 (Homo sapiens (Human), UniProt Q15910); assay: WT EZH2 nucleosome assay; conditions: PRC2 4-protein complex 4 nM, 1.5 μM SAM, HeLa oligonucleosomes
T1 sequence (Q15910 whole entry, looked up): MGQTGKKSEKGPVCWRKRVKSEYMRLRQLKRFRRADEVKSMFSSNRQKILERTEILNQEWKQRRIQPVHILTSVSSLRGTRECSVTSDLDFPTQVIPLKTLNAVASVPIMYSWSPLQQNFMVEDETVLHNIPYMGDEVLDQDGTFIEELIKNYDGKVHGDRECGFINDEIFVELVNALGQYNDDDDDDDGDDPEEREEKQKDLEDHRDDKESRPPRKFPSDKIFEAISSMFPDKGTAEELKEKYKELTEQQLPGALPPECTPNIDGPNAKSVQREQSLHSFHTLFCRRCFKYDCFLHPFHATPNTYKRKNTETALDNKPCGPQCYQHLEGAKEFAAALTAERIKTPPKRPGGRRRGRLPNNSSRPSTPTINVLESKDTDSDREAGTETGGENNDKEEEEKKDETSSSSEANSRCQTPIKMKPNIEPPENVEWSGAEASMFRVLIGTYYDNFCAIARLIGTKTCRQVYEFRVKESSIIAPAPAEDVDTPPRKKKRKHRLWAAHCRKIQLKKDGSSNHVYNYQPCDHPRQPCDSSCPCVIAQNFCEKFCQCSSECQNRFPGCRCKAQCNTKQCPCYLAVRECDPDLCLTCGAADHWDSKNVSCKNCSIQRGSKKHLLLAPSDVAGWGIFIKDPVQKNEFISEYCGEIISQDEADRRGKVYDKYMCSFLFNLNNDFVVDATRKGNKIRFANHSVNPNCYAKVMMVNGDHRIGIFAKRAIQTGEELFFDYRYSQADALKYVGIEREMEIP
T1 sequence (O75530 whole entry partner, looked up): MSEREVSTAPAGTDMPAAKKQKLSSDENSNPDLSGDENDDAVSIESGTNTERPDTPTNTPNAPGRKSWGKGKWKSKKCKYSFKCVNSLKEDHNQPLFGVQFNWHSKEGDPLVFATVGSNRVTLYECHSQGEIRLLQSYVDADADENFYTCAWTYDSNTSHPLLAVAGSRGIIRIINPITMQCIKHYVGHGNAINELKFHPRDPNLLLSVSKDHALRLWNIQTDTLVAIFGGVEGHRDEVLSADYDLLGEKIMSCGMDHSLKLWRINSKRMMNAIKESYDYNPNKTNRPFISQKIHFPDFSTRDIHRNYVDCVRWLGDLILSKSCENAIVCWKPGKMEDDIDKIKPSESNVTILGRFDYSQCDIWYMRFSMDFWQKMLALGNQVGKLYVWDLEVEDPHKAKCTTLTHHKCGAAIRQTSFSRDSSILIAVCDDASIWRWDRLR
T1 sequence (Q15022 whole entry partner, looked up): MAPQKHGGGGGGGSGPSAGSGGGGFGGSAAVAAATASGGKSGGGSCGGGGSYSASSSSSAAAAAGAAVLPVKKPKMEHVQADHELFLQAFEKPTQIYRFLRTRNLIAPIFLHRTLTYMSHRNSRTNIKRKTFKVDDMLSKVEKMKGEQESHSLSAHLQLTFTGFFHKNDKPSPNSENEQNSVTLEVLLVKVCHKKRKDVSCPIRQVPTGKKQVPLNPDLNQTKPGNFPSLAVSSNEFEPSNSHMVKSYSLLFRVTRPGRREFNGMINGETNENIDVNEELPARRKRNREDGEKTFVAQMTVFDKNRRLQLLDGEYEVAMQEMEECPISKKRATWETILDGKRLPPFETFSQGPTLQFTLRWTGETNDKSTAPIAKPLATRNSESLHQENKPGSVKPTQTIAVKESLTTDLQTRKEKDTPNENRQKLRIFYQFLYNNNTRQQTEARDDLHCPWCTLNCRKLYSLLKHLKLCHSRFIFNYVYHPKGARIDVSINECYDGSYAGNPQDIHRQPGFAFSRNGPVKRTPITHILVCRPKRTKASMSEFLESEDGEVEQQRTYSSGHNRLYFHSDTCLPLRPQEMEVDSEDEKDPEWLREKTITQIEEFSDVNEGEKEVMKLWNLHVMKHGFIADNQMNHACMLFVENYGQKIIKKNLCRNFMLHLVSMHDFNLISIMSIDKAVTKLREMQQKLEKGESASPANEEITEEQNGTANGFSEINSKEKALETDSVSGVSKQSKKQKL
T1 sequence (Q09028 whole entry partner, looked up): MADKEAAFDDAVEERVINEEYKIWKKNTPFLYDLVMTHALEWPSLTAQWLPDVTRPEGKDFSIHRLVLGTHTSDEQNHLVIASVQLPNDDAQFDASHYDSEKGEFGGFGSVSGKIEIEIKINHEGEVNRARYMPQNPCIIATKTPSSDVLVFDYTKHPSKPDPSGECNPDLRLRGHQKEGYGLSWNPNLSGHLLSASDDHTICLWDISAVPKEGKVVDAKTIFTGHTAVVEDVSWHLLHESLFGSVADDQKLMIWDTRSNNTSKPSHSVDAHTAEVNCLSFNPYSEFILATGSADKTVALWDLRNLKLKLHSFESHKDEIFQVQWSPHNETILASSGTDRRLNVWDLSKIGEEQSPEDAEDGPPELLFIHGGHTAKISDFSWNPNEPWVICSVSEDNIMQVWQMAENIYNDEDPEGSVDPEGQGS
Protocol: The genes for EZH2, EED, SUZ12, and RBBP4 proteins were cloned into pBacPAK9 vectors (Clontech). RBBP4 was FLAG tagged on the N-terminal end. The baculovirus expressions of these proteins were used to co-infect SF9 insect cells. Insect cell pellets were lysed in a buffer containing 25 mM Tris pH8.0, 300 mM NaCl, 0.5 mM TCEP, complete EDTA-free protease inhibitor (Roche), 0.1% NP-40. The supernatant from the lysate was incubated with FLAG® M2 antibody resin (Sigma). The resin was washed on the chromatography column and eluted with 0.2 mg/ml FLAG peptide. The elute was incubated with omnicleave nucleases (Epicentre Technologies) at 4° C. overnight, then concentrated and loaded onto a Superdex 200 (GE Healthcare) column. The Superdex 200 column was eluted with 25 mM Tris pH8.0, 150 mM NaCl, 0.5 mM TCEP. Fractions containing the PRC2 complex were pooled.
A. Compound preparation • 1.
B. Reagent preparation • 1. […] Dilute TCA to 20% in DI water
C. Enzyme reaction • 1. […] Some compounds were tested under high SAM conditions.
D. Data analysis • 1. IC50 values were determined by fitting the data to a 4-parameter IC50 equation using proprietary curve fitting software. • 2. For compounds tested under high SAM conditions, Ki^app values were obtained by fitting the dose response curve to a model for competitive inhibition using proprietary curve fitting software. Preparation of HeLa Oligonucleosomes: Reagents • Cell Pellet: 15 L HeLa S3 (Accelgen)+6 L HeLa S3 (in house) • Mnase (Worthington Biochemicals) Equipment • SW-28 Rotor • Dounce Homogenizer/B Pestle Buffers • Lysis: 20 mM Hepes pH 7.5, 0.25M Sucrose, 3 mM MgCl2, 0.5% Nonidet P-40, 0.5 mM TCEP, 1 Roche Protease Tablet • B: 20 mM Hepes pH7.5, 3 mM MgCl2, 0.5 mM EDTA, 0.5 mM TCEP, 1 Roche Protease Tablet • MSB: 20 mM Hepes pH7.5, 0.4 M NaCl, 1 mM EDTA, 5% v/v Glycerol, 0.5 mM TCEP, 0.2 mM PMSF • LSB: 20 mM Hepes pH7.5, 0.1M NaCl, 1 mM EDTA, 0.5 mM TCEP, 0.2 mM PMSF • NG: 20 mM Hepes pH7.5, 1 mM EDTA, 0.4 m NaCl, 0.2 mM PMSF, 0.5 mM TCEP • Storage: 20 mM Hepes pH7.5, 1 mM EDTA, 10% Glycerol, 0.2 mM PMSF, 0.5 mM TCEP Protocol

[3] = molecular target: T1, WT EZH2; assay: WT EZH2 nucleosome assay (10X SAM, high SAM conditions); conditions: 15 uM SAM, Ki app from competitive inhibition fit
[4] = EZH2 Mutant Y641N Nucleosome assay IC50 (μM)
[5] = WT EZH2 Nucleosome assay IC50 (μM)
[6] = read-out: EZH2 Mutant Y641N Nucleosome assay IC50
[7] = read-out: WT EZH2 Nucleosome assay IC50
[8] = read-out: WT EZH2 Nucleosome assay (10X SAM) Ki

Chain of EZH2 Mutant Y641N (Q15910 whole entry Y641N, looked up): as the sequence (Q15910 whole entry, looked up) above, with Y641N counted along it
Chain of EZH2 Mutant Y641N (O75530 whole entry partner, looked up): as the sequence (O75530 whole entry partner, looked up) above
Chain of EZH2 Mutant Y641N (Q15022 whole entry partner, looked up): as the sequence (Q15022 whole entry partner, looked up) above
Chain of EZH2 Mutant Y641N (Q09028 whole entry partner, looked up): as the sequence (Q09028 whole entry partner, looked up) above

IC50 [1, 4] [µM] | IC50 [2, 5] [µM] | IC50 [1, 6] [µM] | IC50 [2, 7] [µM] | SMILES | also measured
0.125 | 0.035 |  |  | Cc1cc(C)c(CN2CCc3c(Cl)cc(C(C)CO)c(Cl)c3C2=O)c(=O)[nH]1 (racemic) [Example 17] | 
 |  | 0.174 | 0.038 | COC(CO)c1cc(Cl)c2c(c1Cl)C(=O)N(Cc1c(C)cc(C)[nH]c1=O)CC2 (single isomer, unassigned) [Example 11, 5,8-dichloro-2-[(4,6-dimethyl-2-oxo-1,2-dihydropyridin-3-yl)methyl]-7-(2-hydroxy-1-methoxyethyl)-3,4-dihydroisoquinolin-1(2H)-one] | 
 |  | 0.242 | 0.04 | Cc1cc(C)c(CN2CCc3c(Cl)cc(C(C)CCO)c(Cl)c3C2=O)c(=O)[nH]1 (single isomer, unassigned) [Example 39] | 
0.3 | 0.037 |  |  | CCC(O)c1cc(Cl)c2c(c1Cl)C(=O)N(Cc1c(C)cc(C)[nH]c1=O)CC2 (single isomer, unassigned) [Example 27] | 
0.053 | 0.011 |  |  | CCC(CO)c1cc(Cl)c2c(c1Cl)C(=O)N(Cc1c(C)cc(C)[nH]c1=O)CC2 (racemic) [Example 20] | 
1.89 | 0.126 |  |  | CCC(O)c1cc(Cl)c2c(c1Cl)C(=O)N(Cc1c(C)cc(C)[nH]c1=O)CC2 (single isomer, unassigned) [Example 28] | 
 |  | 0.109 | 0.015 | Cc1cc(C)c(CN2CCc3c(Cl)cc(C(C)CN(C)CCO)c(Cl)c3C2=O)c(=O)[nH]1 (racemic) [Example 21] | 
 |  | 1.98 | 0.326 | COC(CO)c1cc(Cl)c2c(c1Cl)C(=O)N(Cc1c(C)cc(C)[nH]c1=O)CC2 (single isomer, unassigned) [Example 10, 5,8-dichloro-2-[(4,6-dimethyl-2-oxo-1,2-dihydropyridin-3-yl)methyl]-7-(2-hydroxy-1-methoxyethyl)-3,4-dihydroisoquinolin-1(2H)-one] | 
 | 0.066 |  |  | Cc1cc(C)c(CN2CCc3c(Cl)cc([C@@H](CO)[C@H]4CCOC4)c(Cl)c3C2=O)c(=O)[nH]1 (single isomer, unassigned) [Example 3, 5,8-dichloro-2-[(4,6-dimethyl-2-oxo-1,2-dihydropyridin-3-yl)methyl]-7-{(1S*)-2-hydroxy-1-[(3R*)-tetrahydrofuran-3-yl]ethyl}-3,4-dihydroisoquinolin-1(2H)-one] | 
 |  | 0.024 | 0.006 | Cc1cc(C)c(CN2CCc3c(Cl)cc(C(C)CCO)c(Cl)c3C2=O)c(=O)[nH]1 (single isomer, unassigned) [Example 40] | 
0.107 | 0.017 |  |  | CCC(CO)c1cc(Cl)c2c(c1Cl)C(=O)N(Cc1c(C)cc(C)[nH]c1=O)CC2 (single isomer, unassigned) [Example 29] | 
0.693 | 0.084 |  |  | CCC(O)c1cc(Cl)c2c(c1Cl)C(=O)N(Cc1c(C)cc(C)[nH]c1=O)CC2 (racemic) [Example 25] | 
 |  | 0.102 | 0.012 | Cc1cc(C)c(CN2CCc3c(Cl)cc(C([C@H](C)O)[C@@H](C)O)c(Cl)c3C2=O)c(=O)[nH]1 (single isomer, unassigned) [Example 42] | 
 |  | 0.07 | 0.012 | Cc1cc(C)c(CN2CCc3c(Cl)cc(C(C)CCO)c(Cl)c3C2=O)c(=O)[nH]1 (racemic) [Example 33] | 
 |  | 1.13 | 0.093 | Cc1cc(C)c(CN2CCc3c(Cl)cc(C(C)C#N)c(Cl)c3C2=O)c(=O)[nH]1 (racemic) [Example 32] | 
0.02 | 0.004 |  |  | CCC(CO)c1cc(Cl)c2c(c1Cl)C(=O)N(Cc1c(C)cc(C)[nH]c1=O)CC2 (single isomer, unassigned) [Example 30] | 

Second part, the compound before the results:

SMILES | IC50 [1, 4] [µM] | IC50 [2, 5] [µM] | IC50 [1, 6] [µM] | IC50 [2, 7] [µM] | also measured
Cc1cc(C)c(CN2CCc3c(Cl)cc(C(C)C4CCN(C(=O)CO)CC4)c(Cl)c3C2=O)c(=O)[nH]1 (racemic) [Example 24] |  |  | 0.008 | 0.004 | 
Cc1cc(C)c(CN2CCc3c(Cl)cc(C(CO)C4CCOCC4)c(Cl)c3C2=O)c(=O)[nH]1 (single isomer, unassigned) [Example 37] | 0.002 | 0.001 |  |  | 
Cc1cc(C)c(CN2CCc3c(Cl)cc([C@H](CO)[C@H]4CCOC4)c(Cl)c3C2=O)c(=O)[nH]1 [Example 1, 5,8-dichloro-2-[(4,6-dimethyl-2-oxo-1,2-dihydropyridin-3-yl)methyl]-7-{(1R)-2-hydroxy-1-[(3R)-tetrahydrofuran-3-yl]ethyl}-3,4-dihydroisoquinolin-1(2H)-one] |  |  | 0.003 | 0.001 | 
Cc1cc(C)c(CN2CCc3c(Cl)cc([C@H](CO)[C@@H]4CCOC4)c(Cl)c3C2=O)c(=O)[nH]1 (single isomer, unassigned) [Example 2, 5,8-dichloro-2-[(4,6-dimethyl-2-oxo-1,2-dihydropyridin-3-yl)methyl]-7-{(1R*)-2-hydroxy-1-[(3S*)-tetrahydrofuran-3-yl]ethyl}-3,4-dihydroisoquinolin-1(2H)-one] | 0.004 | 0.002 |  |  | 
COC(c1cc(Cl)c2c(c1Cl)C(=O)N(Cc1c(C)cc(C)[nH]c1=O)CC2)C1CCN(C(=O)CO)CC1 (single isomer, unassigned) [Example 36, 5,8-dichloro-2-[(4,6-dimethyl-2-oxo-1,2-dihydropyridin-3-yl)methyl]-7-{[1-(hydroxyacetyl)piperidin-4-yl](methoxy)methyl}-3,4-dihydroisoquinolin-1(2H)-one] | 0.443 | 0.105 |  |  | Ki ([3]; WT EZH2 Nucleosome assay (10X SAM) Ki (μM)): 0.136 µM
COC(c1cc(Cl)c2c(c1Cl)C(=O)N(Cc1c(C)cc(C)[nH]c1=O)CC2)C1CCN(C(=O)CO)CC1 (single isomer, unassigned) [Example 35, 5,8-dichloro-2-[(4,6-dimethyl-2-oxo-1,2-dihydropyridin-3-yl)methyl]-7-{[1-(hydroxyacetyl)piperidin-4-yl](methoxy)methyl}-3,4-dihydroisoquinolin-1(2H)-one] | 0.002 | 0.002 |  |  | 
Cc1cc(C)c(CN2CCc3c(Cl)cc(CC4CCN(C(=O)CO)CC4)c(Cl)c3C2=O)c(=O)[nH]1 [Example 23] |  |  | 0.067 | 0.009 | 
Cc1cc(C)c(CN2CCc3c(Cl)cc(C(C)C)c(Cl)c3C2=O)c(=O)[nH]1 [Example 14, 5,8-dichloro-2-[(4,6-dimethyl-2-oxo-1,2-dihydropyridin-3-yl)methyl]-7-(propan-2-yl)-3,4-dihydroisoquinolin-1(2H)-one] |  |  | 0.04 | 0.008 | 
Cc1cc(C)c(CN2CCc3c(Cl)cc(CC(=O)O)c(Cl)c3C2=O)c(=O)[nH]1 [Example 22] |  |  | 95.2 | 7.82 | 
Cc1cc(C)c(CN2CCc3c(Cl)cc([C@@H](C)CO)c(Cl)c3C2=O)c(=O)[nH]1 [Example 19] |  |  | 0.132 | 0.013 | Ki [3, 8]: 0.01 µM
Cc1cc(C)c(CN2CCc3c(Cl)cc(C(CO)C4CCOCC4)c(Cl)c3C2=O)c(=O)[nH]1 (racemic) [Example 31] | 0.006 | 0.004 |  |  | 
Cc1cc(C)c(CN2CCc3c(Cl)cc([C@H](C)CO)c(Cl)c3C2=O)c(=O)[nH]1 [Example 18] |  |  | 0.995 | 0.126 | Ki [3, 8]: 0.115 µM
Cc1cc(C)c(CN2CCc3c(Cl)cc(C(CO)C4CCOCC4)c(Cl)c3C2=O)c(=O)[nH]1 (single isomer, unassigned) [Example 38] | 0.74 | 0.378 |  |  | 
